# Laboratory results taken from ChEMBL document CHEMBL1201862, “PubChem BioAssay data set” (2004).
# Active and inactive are the calls of the source.
# How the values were obtained:
# [1] = target: T1, Carboxy-terminal domain RNA polymerase II polypeptide A small phosphatase 1 (Homo sapiens, UniProt Q9GZU7); assay: CTDSP1 inhibitors, concentration-response, biochemical, absorbance readout, ultra-high-throughput screen actives (AID 540297); type: functional
# T1 sequence (Q9GZU7 whole entry): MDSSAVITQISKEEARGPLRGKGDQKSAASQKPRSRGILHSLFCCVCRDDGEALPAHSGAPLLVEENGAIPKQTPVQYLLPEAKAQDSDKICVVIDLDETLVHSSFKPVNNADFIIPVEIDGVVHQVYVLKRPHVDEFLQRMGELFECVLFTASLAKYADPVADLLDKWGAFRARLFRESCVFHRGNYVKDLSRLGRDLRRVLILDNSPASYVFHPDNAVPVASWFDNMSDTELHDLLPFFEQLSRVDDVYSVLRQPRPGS
# [2] = target: T2, Mannose-6-phosphate isomerase (Homo sapiens, UniProt P34949); assay: MPI inhibition at elevated mannose 6-phosphate – biochemical, fluorescence intensity, high mannose 6-phosphate, primary screen (AID 1220)
# T2 sequence (P34949 whole entry): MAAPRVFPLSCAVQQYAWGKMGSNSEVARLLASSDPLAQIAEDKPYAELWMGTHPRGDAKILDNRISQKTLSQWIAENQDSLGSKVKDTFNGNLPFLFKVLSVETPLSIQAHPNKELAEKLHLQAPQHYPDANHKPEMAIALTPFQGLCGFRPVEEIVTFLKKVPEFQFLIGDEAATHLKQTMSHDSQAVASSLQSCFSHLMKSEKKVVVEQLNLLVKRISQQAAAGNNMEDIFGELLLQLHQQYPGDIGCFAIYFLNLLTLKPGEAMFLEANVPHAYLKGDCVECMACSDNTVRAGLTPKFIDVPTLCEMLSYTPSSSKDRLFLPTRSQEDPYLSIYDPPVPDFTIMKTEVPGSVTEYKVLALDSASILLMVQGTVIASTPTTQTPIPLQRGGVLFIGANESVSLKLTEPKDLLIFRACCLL
# [3] = target: T3, Ubiquitin-conjugating enzyme E2 N (Homo sapiens, UniProt P61088); type: functional;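 further: Dose-response confirmation in a TR-FRET assay detecting UBC13-driven polyubiquitin chain formation, inhibition measured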
# T3 sequence (P61088 whole entry): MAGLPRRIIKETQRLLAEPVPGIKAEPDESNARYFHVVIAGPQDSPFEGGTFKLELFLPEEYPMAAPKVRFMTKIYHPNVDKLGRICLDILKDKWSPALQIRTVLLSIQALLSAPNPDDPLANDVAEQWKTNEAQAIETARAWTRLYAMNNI
# cells [4] = type: functional, cell-based
# Caspase-6 = target: T4, Caspase-6 (Homo sapiens, UniProt P55212); assay: inhibition of CASP6 peptide cleavage – biochemical, VEID-R110 fluorescence, cherry-pick, dose response (AID 720632)
# T4 sequence (P55212 whole entry): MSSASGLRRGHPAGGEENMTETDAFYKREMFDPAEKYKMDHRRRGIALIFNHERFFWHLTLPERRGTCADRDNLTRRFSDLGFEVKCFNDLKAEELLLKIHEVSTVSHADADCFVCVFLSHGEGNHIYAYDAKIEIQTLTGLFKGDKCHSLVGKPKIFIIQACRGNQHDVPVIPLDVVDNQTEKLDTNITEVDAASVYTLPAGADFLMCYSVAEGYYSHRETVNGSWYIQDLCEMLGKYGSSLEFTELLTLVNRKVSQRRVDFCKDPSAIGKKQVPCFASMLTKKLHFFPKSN
# cells [5] = type: functional, cell-based; remark: listed apart in the source
# Cytochrome P450 2C9 = Cytochrome P450 2C9 (Homo sapiens, UniProt P11712)
# Sequence of Cytochrome P450 2C9 (P11712 whole entry): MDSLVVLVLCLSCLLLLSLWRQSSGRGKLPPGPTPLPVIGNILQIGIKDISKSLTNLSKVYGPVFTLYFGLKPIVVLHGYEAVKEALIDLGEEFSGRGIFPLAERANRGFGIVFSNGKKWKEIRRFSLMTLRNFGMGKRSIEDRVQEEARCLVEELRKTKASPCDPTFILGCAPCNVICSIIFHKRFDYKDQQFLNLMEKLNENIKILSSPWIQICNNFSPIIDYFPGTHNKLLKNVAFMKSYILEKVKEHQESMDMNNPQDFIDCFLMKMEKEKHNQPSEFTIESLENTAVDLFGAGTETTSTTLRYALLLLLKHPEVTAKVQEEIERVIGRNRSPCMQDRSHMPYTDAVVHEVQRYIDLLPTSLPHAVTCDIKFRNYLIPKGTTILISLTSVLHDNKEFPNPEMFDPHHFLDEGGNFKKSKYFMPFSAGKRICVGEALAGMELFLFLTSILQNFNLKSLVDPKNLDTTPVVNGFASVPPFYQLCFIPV
# Fatty acid synthase [6] = target: T5, Fatty acid synthase (Homo sapiens, UniProt P49327); assay: inhibition of human FAS-TE enzyme activity – biochemical, kinetic fluorescence intensity, dose response (AID 624326); type: functional;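 further: rate of fluorescence rise from hydrolysis of a fluorogenic O-methyl fluorescein ester substrate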
# T5 sequence (P49327 whole entry): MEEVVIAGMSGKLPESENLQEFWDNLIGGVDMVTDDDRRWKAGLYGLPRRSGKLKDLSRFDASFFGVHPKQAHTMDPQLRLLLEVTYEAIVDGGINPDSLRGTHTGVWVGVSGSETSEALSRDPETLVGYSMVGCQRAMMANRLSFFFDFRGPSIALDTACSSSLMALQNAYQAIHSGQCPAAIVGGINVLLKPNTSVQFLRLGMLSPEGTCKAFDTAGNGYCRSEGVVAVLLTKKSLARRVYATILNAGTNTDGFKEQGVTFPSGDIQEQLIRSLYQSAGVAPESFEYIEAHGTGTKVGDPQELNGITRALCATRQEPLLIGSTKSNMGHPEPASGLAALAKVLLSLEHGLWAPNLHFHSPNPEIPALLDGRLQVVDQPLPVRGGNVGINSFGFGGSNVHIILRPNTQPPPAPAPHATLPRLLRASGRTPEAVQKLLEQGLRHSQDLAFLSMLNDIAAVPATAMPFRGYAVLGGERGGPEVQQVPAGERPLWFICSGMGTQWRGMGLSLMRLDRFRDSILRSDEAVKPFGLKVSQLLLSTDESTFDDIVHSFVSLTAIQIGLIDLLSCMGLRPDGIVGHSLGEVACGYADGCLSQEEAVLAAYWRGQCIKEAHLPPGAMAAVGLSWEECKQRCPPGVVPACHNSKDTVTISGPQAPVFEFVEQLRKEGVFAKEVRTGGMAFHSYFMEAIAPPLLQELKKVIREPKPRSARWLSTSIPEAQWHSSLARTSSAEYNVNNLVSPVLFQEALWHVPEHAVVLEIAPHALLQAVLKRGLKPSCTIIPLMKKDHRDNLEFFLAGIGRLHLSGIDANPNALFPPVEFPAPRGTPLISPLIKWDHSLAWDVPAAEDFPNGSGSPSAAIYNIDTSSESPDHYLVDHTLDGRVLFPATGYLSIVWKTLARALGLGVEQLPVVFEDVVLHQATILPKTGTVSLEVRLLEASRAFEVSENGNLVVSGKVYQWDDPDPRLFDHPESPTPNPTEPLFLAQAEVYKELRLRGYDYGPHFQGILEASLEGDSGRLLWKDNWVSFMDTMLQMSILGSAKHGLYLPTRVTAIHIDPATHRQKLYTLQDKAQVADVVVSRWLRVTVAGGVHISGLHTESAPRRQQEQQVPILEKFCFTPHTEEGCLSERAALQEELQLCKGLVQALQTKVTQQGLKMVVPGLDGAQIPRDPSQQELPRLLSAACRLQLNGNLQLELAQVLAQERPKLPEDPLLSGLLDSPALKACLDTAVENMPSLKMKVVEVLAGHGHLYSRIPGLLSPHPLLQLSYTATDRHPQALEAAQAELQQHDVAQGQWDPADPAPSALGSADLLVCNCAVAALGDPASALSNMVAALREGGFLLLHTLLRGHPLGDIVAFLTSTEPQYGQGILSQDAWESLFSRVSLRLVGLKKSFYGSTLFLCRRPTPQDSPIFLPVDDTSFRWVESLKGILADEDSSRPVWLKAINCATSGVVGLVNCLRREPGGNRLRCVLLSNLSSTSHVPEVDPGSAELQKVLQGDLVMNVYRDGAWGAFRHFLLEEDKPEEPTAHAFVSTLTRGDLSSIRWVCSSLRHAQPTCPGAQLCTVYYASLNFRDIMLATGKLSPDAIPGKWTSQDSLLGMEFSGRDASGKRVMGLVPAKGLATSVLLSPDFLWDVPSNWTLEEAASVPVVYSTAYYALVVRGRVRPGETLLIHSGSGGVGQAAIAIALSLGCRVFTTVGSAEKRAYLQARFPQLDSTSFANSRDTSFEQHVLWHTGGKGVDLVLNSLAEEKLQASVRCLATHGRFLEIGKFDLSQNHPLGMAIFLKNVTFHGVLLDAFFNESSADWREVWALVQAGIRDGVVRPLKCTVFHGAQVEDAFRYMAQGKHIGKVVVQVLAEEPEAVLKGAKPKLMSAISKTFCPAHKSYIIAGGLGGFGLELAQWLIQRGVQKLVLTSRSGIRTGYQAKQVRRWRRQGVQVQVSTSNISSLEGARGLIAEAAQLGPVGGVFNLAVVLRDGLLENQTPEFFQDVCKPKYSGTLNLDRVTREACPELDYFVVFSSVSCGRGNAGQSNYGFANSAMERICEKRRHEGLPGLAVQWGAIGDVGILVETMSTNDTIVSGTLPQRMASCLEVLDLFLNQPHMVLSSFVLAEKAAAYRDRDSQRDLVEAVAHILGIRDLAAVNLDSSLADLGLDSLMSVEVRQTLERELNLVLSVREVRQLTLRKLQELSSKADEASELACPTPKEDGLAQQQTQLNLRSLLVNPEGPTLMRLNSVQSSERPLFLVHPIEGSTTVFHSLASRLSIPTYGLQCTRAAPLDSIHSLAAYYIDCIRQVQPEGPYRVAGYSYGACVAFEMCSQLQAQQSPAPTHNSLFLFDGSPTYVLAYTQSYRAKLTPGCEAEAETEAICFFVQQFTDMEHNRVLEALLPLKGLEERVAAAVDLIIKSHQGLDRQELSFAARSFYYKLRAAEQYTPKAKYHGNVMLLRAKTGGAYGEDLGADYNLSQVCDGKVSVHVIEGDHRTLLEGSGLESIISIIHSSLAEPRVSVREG
# Fatty acid synthase [7] = target: T5, Fatty acid synthase; assay: inhibition of human FAS-TE enzyme activity – biochemical, endpoint fluorescence intensity, uHTS hits, dose response (AID 624327); type: functional;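 further: fluorescence from hydrolysis of an O-methyl fluorescein acyl ester substrate by the enzyme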
# [8] = target: Luciferin 4-monooxygenase (Photinus pyralis, UniProt P08659); assay: inhibition of purified Photinus pyralis luciferase – biochemical, luminescence, dose response (AID 1891)
# Sequence of Luciferin 4-monooxygenase (P08659 whole entry): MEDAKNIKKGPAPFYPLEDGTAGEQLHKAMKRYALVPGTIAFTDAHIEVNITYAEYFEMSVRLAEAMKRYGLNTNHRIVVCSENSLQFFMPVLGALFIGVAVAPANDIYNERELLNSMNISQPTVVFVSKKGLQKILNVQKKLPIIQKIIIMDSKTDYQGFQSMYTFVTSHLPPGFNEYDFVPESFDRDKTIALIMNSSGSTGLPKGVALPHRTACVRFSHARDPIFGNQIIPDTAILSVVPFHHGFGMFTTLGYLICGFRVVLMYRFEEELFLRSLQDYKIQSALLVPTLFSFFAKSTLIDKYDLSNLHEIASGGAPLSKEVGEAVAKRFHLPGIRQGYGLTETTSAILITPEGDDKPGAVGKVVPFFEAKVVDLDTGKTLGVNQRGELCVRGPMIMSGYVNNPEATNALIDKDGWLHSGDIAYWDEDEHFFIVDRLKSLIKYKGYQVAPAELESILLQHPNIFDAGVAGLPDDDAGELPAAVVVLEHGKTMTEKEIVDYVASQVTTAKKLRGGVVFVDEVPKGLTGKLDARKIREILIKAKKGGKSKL
# [9] = Luminescence Cell-Based Dose Confirmation HTS to Identify Inhibitors of Platelet Dense Granule Release. [Related pubchem assays: 1663 (Primary HTS), 1678 (Summary of Project)]; type: functional
# [10] = target: T6, RNA-binding protein pos-1 (Caenorhabditis elegans, UniProt G5EF15); assay: disruptors of C. elegans POS-1 RNA interaction – biochemical, fluorescence polarization, dose response (AID 1964);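 further: purified POS-1 fused to maltose binding protein made in E. coli; potency of compounds blocking POS-1 binding to fluorescent RNA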
# T6 sequence (G5EF15 whole entry): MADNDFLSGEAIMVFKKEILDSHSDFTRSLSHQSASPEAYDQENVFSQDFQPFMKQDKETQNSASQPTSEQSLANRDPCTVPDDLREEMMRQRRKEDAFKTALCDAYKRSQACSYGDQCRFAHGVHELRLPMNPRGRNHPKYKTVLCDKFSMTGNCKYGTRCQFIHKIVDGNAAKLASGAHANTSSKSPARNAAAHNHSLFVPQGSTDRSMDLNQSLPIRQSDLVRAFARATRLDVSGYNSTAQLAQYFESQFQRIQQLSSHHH
# [11] = target: T7, Zinc finger protein mex-5 (Caenorhabditis elegans, UniProt Q9XUB2); assay: potency of MEX-5 RNA-binding blockers – biochemical, C. elegans, fluorescence polarization, dose response (AID 1960)
# T7 sequence (Q9XUB2 whole entry): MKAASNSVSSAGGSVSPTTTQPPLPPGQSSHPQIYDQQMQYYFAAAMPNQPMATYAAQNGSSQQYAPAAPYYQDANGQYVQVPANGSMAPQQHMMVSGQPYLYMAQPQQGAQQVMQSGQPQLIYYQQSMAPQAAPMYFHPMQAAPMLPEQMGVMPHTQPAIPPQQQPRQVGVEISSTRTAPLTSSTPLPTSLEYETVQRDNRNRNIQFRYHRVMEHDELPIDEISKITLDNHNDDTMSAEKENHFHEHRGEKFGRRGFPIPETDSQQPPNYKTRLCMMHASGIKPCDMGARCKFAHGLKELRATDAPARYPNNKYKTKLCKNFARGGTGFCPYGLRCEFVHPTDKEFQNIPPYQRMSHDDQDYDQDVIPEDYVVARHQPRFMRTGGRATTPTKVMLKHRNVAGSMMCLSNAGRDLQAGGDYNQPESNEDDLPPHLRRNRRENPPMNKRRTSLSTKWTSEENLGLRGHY
smiles,measurement,setting,value
O=C(COC(=O)c1cccnc1Cl)NCc1ccco1,IC50,[1],12.4 µM (active)
Cc1c(C(=O)O)c(C(=O)O)nc2ccc(N3CCOCC3)cc12,IC50,[2],> 50 µM (not active)
COc1ccc(-c2cc3ccccc3oc2=O)cc1NC(=S)NC(=O)c1ccc2c(c1)OCCO2,IC50,[3],> 20 µM (inactive)
Cc1ccc(S(=O)(=O)NC2=NC(=O)/C(=C/c3cc([N+](=O)[O-])ccc3O)S2)cc1,EC50,cells [4],53.1 µM (active)
same,AC50,Caspase-6,10.7 µM (active)
same,EC50,cells [5],> 350 µM (not active)
C[N+]1(CCOc2ccc([N+](=O)[O-])cc2)CCOCC1.[I-],AC50,Cytochrome P450 2C9,inconclusive
same,IC50,[1],4.86 µM (active)
CCOC(=O)CCCSc1nnc(CCCCCN2C(=O)c3cccc4cccc(c34)C2=O)o1,IC50,[3],> 20 µM (inactive)
O=C(Nc1cccc([N+](=O)[O-])c1)N1CCc2ccccc2C1,IC50,Fatty acid synthase [6],6.26 µM (active)
same,IC50,Fatty acid synthase [7],8.71 µM (active)
COC(=O)c1cc(C(=O)OCC(=O)NC2CCCC2)cc([N+](=O)[O-])c1,IC50,Fatty acid synthase [6],9.42 µM (active)
same,IC50,Fatty acid synthase [7],8.82 µM (active)
Fc1ccccc1Nc1nc2c(s1)CCc1ccccc1-2,IC50,[2],> 50 µM (not active)
CN1CCN(/C=C2\SC(=S)NC2=O)CC1,EC50,[8],> 112 µM (not active)
same,EC50,[9],> 112 µM (not active)
Cc1cc(/C=C2\C(=O)NC(=O)N(c3ccc(Cl)cc3)C2=O)c(C)n1-c1cccc(C(=O)O)c1,EC50,[10],> 300 µM (not active)
same,EC50,[11],65.9 µM (active)
same,IC50,[1],9.6 µM (active)
O=C(Cc1ccc(-n2c(=O)c3ccccc3n(Cc3ccc(F)cc3)c2=O)cc1)NCC1CCCO1 (centres undefined),EC50,[8],> 112 µM (not active)
same,EC50,[9],> 112 µM (not active)
CCN(C(=S)Nc1cccnc1)c1cccc2ccccc12,IC50,[2],> 50 µM (not active)
Cc1nc2cc(NC(=O)Nc3ccccc3Cl)ccc2n1C,EC50,[8],5.05 µM (active)
same,EC50,[9],5.86 µM (active)
